In US11896704B2, “Compounds useful for the treatment and/or care of the skin, hair, nails and/or mucous membranes” (LUBRIZOL ADVANCED MATERIALS, INC., priority 2017, dated 2024):

What was measured:
[1] = system: CRY2 (cryptochrome circadian clock 2); assay: Clock gene expression in synchronized HEKa, real time PCR: CRY2; type: cell-based, Human; settings: 0.5 mg/ml
Protocol: In Vitro Study of Clock Genes Expression in Synchronized Human Epidermal Keratinocytes from Adult (HEKa) Using Real Time PCR Arrays. HEKa cells (Life Technologies) are seeded at 3.0×10^5 cells/well in 12-well plates and incubated in culture medium, Keratinocyte growth medium supplemented with Mix C39016-CaCl2 solution (Promocell). For synchronization, cells were subjected to two alternative cycles of 12 hours each at 37° C. in 5% CO2 humidified air (day mode) and 33° C. in 5% CO2 humidified air (night mode). 12 hours after starting synchronization, cells are incubated with the synthetic peptide […] (PEP-1, H-[SEQ ID. NO. 2]-NH2) at 0.5 mg/ml in culture medium. Cells treated with medium alone are used as basal condition. At the end of synchronization, cell lysates are collected at two different times: 7:30 hour (early morning point) and 11:30 hour (midday point). […] After RNA elution, quantification and analysis of purity of RNA samples are performed with a nanodrop (Thermo). […] SYBR Green binds to double-stranded DNA molecules and emits fluorescence which is quantified, and the fluorescence intensity is proportional to the amount of the product in the PCR reaction. […] Fold change relative to the expression of the sample genes and reference genes is calculated using normalized expression (ΔΔ(Ct)) method using CFX Manager Software (BioRad).

[2] = system: mitochondrial complex II (succinate-coenzyme Q reductase); assay: Mitochondrial complex II activity in human dermal fibroblasts, colorimetric assay; type: cell-based; settings: HDFa, 24 hours
Protocol: Measurement of Increase in Mitochondrial Complex II Activity Using an Assay Based on Colorimetric Detection.
Human Dermal Fibroblasts from adult (HDFa, Life Technologies) are seeded at a density of 750.000 cells/75 cm^2 flask (one flask per condition) in culture medium M106 with Low Serum Growth Supplement (Life Technologies). Cells are grown during 7 days at 37° C. in 5% CO2 humidified air. […]. Non treated cells incubated in culture medium alone are used as basal conditions. After 24 hours of treatment, cells are detached using trypsin and resuspended in 40 ul of Phosphate buffer saline (Sigma). Total protein concentration is measured with a Pierce BCA Protein Assay Kit (BCA Assay, Thermo Scientific) following manufacturer's protocol to adjust the final protein concentration between 2500-3000 ug/ml. Briefly, standards and samples are dispensed and Working Reagent is added to the samples. After 30 minutes of incubation at 37° C., absorbance is measured with a microplate reader (Clariostar®, BMG) at 562 nm.
Mitochondrial complex II activity is measured with Complex II enzyme activity microplate assay Kit (Abcam) according to the manufacture's protocol. This assay follows the production of ubiquinol (QH2, produced by mitochondrial complex II) coupled to the reduction of a colorimetric dye (DCPIP, 2,6-diclorophenolindophenol). In brief, 50 ul of each sample (adjusted to 2500-3000 ug/ml of total protein amount) is incubated for 2 hours. After that, wells are washed several times and incubated with Activity solution provided with the kit (composed by ubiquinone, succinate and DCPIP). For the determination of mitochondrial complex II activity, colorimetric reduction of DCPIP at Optical Density (OD) 600 nm in a kinetic reaction along 30 minutes is measured with a microplate reader (Clariostar®, BMG). Results are calculated as the rate of decrease in absorbance at OD 600 nm between two points in the linear zone over time.
[…]. These values represent the mean for at least three independent assays.

[3] = system: Phenion Full-Thickness Skin models; assay: Hydration level in synchronized human full-thickness skin models; type: cell-based; settings: 0.5 mg/ml, 48 hours of treatment, one assay
Protocol: Measurement of Hydration Level in Synchronized Human Full-Thickness Skin Models.
Immediately after arrival, the Phenion® Full-Thickness Skin models (HENKEL) are placed in Petri dishes (5 skin models per condition) according to the supplier's instructions in ALI medium (HENKEL). After 72 hours incubation at 37° C., 5% CO2, a synchronization protocol is initialized. For this purpose, skin models are subjected to two alternative cycles of 12 hours each at 37° C. in 5% CO2 humidified air (day mode) and 33° C. in 5% CO2 humidified air (night mode). At the beginning of the synchronization, pre-treatment measurement of hydration at 7:30 hours is tested in skin models. Hydration measurements of the epidermis are performed with DPM 9003 BT™ (NOVA® Technology Corporation) and with MoistureMeter SC™ (Delphin). For pre-treatment measurements, skin model's surface is washed with 5 ml of Phosphate Buffered Saline (PBS, Sigma). […]
The results in Table 13 show the mean of the percentage of hydration levels at 7:30 hours after 48 hours of treatment relative to hydration levels in basal conditions. […] These values are calculated for one assay. […]
The results in Table 14 represent the mean of the percentage of hydration levels at 7:30 hours after 48 hours of treatment relative to hydration levels in basal conditions at the same time. […] These values are calculated for one assay. […]

Percentage of mitochondrial complex II activity relative to basal condition (%) ([2]; 0.1 mg/mL): 166.00% | Percentage of mitochondrial complex II activity relative to basal condition (%) ([2]; 0.5 mg/mL): 142.12% | Percentage of mitochondrial complex II activity relative to basal condition (%) ([2]; 1 mg/mL): 133.00%
Substance: H-Phe-Trp-Met-Lys-Arg-Lys-Arg-Val-Pro-NH2 (H-FWMKRKRVP-NH2) [PEP-1]
Fold induction respect to Basal condition at 7:30 h (%) [1]: 132.5% | Hydration level (%) ([3]; 7:30 h, relative to basal conditions 7:30 h, MoistureMeter SC): 110.1% | Hydration level at 7:30 hours (%) ([3]; relative to basal conditions, DPM9003 BT): 131.6%
